Measured values published in ChEMBL document CHEMBL4680150, “Design, synthesis and biological evaluation of vincamine derivatives as potential pancreatic β-cells protective agents for the treatment of type 2 diabetes mellitus” (Eur J Med Chem, 2020).
Calls of active or inactive are those of the source. Unless noted, the rule behind the calls is not given here.

Key:
INS1(832/13) [1] = test: Cytoprotective activity against STZ-induced toxicity in rat INS-1 832/13 cells at 20 uM incubated for 24 hrs by MTT assay; format: functional, cell-based
INS1(832/13) [2] = test: Cytoprotective activity in rat INS-1 832/13 cells assessed as inhibition of STZ-induced apoptosis at 20 uM incubated for 24 hrs in presence of wortmannin by MTT assay; format: functional, cell-based
INS-1 832/13 [3] = test: Activation of AKT in STZ-induced rat INS-1 832/13 cells assessed as increase in Akt phosphorylation at 20 uM after 24 hrs in presence of wortmannin by Western blot analysis
INS1(832/13) [4] = test: Cytoprotective activity in rat INS-1 832/13 cells assessed as inhibition of STZ-induced apoptosis incubated for 24 hrs by MTT assay; format: functional, cell-based; conditions: INS-1 832/13, 24 h
INS-1 832/13 [5] = test: Activation of AKT in STZ-induced rat INS-1 832/13 cells assessed as increase in Akt phosphorylation at 20 uM after 24 hrs by Western blot analysis; conditions: filed as activator
INS1(832/13) [6] = test: Cytoprotective activity against STZ-induced toxicity in rat INS-1 832/13 cells assessed as mass of apoptotic cells at 20 uM by Annexin V-FITC staining based flow cytometric analysis (reference value: 40.8%); format: functional
INS1(832/13) [7] = test: Cytoprotective activity in rat INS-1 832/13 cells assessed as inhibition of STZ-induced apoptosis at 20 uM incubated for 24 hrs by MTT assay relative to control; format: functional; design: scale not given: the % may be the effect or the level left
INS-1 832/13 [8] = test: Activation of AKT in STZ-induced rat INS-1 832/13 cells assessed as increase in Akt phosphorylation at 20 uM after 24 hrs by AlphaLISA assay; conditions: filed as activator
INS-1 832/13 [9] = test: Activation of AKT in STZ-induced rat INS-1 832/13 cells assessed as increase in Akt phosphorylation at 5 to 20 uM after 24 hrs by Western blot analysis; conditions: filed as activator, dose 5-20 µM
INS1(832/13) [10] = test: Cytoprotective activity against STZ-induced rat INS-1 832/13 cells assessed as increase in IRS2 mRNA expression at 5 to 20 uM after 24 hrs RT-PCR analysis; format: functional, cell-based; conditions: dose 5-20 µM
INS-1 832/13 [11] = test: Activation of AKT in STZ-induced rat INS-1 832/13 cells assessed as increase in Akt phosphorylation at 5 to 20 uM after 24 hrs by AlphaLISA assay; conditions: filed as activator, dose 5-20 µM
INS-1 832/13 [12] = test: Activation of PI3K/Akt signalling pathway in STZ-induced rat INS-1 832/13 cells assessed as decrease in p21 mRNA expression at 5 to 20 uM after 24 hrs by RT-PCR analysis; conditions: filed as activator, dose 5-20 µM
INS1(832/13) [13] = test: Cytoprotective activity against STZ-induced toxicity in rat INS-1 832/13 cells assessed as mass of apoptotic cells at 10 uM by Annexin V-FITC staining based flow cytometric analysis (reference value: 40.8%); format: functional
INS-1 832/13 [14] = test: Activation of PI3K/Akt signalling pathway in STZ-induced rat INS-1 832/13 cells assessed as decrease in caspase 9 protein expression at 5 to 20 uM after 24 hrs by Western blot analysis; conditions: filed as activator, dose 5-20 µM
INS1(832/13) [15] = test: Cytoprotective activity against STZ-induced toxicity in rat INS-1 832/13 cells at 10 uM incubated for 24 hrs by MTT assay; format: functional, cell-based
INS1(832/13) [16] = test: Cytoprotective activity against STZ-induced toxicity in rat INS-1 832/13 cells assessed as mass of apoptotic cells at 5 uM by Annexin V-FITC staining based flow cytometric analysis (reference value: 40.8%); format: functional
INS-1 832/13 [17] = test: Activation of PI3K/Akt signalling pathway in STZ-induced rat INS-1 832/13 cells assessed as increase in phosphorylation of FOX01 at Ser256 residue at 5 to 20 uM after 24 hrs by Western blot analysis; conditions: filed as activator, dose 5-20 µM
INS-1 832/13 [18] = test: Activation of PI3K/Akt signalling pathway in STZ-induced rat INS-1 832/13 cells assessed as decrease in cleaved-caspase 3 protein expression at 5 to 20 uM after 24 hrs by Western blot analysis; conditions: filed as activator, dose 5-20 µM
INS1(832/13) [19] = test: Potency index, ratio of vincamine EC50 to test compound EC50 for cytoprotective activity in rat INS-1 832/13 cells assessed as inhibition of STZ-induced apoptosis; format: functional
INS-1 832/13 [20] = test: Activation of PI3K/Akt signalling pathway in STZ-induced rat INS-1 832/13 cells assessed as decrease in caspase 3 protein expression at 5 to 20 uM after 24 hrs by Western blot analysis; conditions: filed as activator, dose 5-20 µM
INS-1 832/13 [21] = test: Activation of PI3K/Akt signalling pathway in STZ-induced rat INS-1 832/13 cells assessed as increase in phosphorylation of GSK3beta at Ser9 residue at 5 to 20 uM after 24 hrs by Western blot analysis; conditions: filed as activator, dose 5-20 µM
INS-1 832/13 [22] = test: Activation of PI3K/Akt signalling pathway in STZ-induced rat INS-1 832/13 cells assessed as decrease in Bim mRNA expression at 5 to 20 uM after 24 hrs by RT-PCR analysis; conditions: filed as activator, dose 5-20 µM
INS1(832/13) [23] = test: Cytoprotective activity against STZ-induced rat INS-1 832/13 cells assessed as increase in IRS2 protein expression at 5 to 20 uM after 24 hrs Western blot analysis; format: functional, cell-based; conditions: dose 5-20 µM

CC[C@]12CCCN3CCc4c(n(c5ccccc45)[C@@](O)(C(=O)OC)C1)[C@@H]32 [VINCAMINE]
Activity (INS1(832/13) [1]): Active | Activity (INS1(832/13) [2]): inactive | Activity (INS-1 832/13 [3]): inactive | EC50 (INS1(832/13) [4]): 11 µM | Activity (INS-1 832/13 [5]): Active | Activity (INS1(832/13) [6]): 28.7% | Activity (INS1(832/13) [7]): 63% | Activity (INS-1 832/13 [8]): Active

CCNCC1=C[C@]2(CC)CCCN3CCc4c(n1c1ccccc41)[C@@H]32
Activity (INS-1 832/13 [9]): Active | Activity (INS1(832/13) [10]): Active | Activity (INS1(832/13) [2]): inactive | Activity (INS-1 832/13 [11]): Active | Activity (INS-1 832/13 [12]): Active | Activity (INS1(832/13) [13]): 29.1% | Activity (INS-1 832/13 [14]): Active | Activity (INS-1 832/13 [3]): inactive | EC50 (INS1(832/13) [4]): 0.27 µM | Activity (INS1(832/13) [15]): Active | Activity (INS1(832/13) [16]): 31.3% | Activity (INS1(832/13) [6]): 24.1% | Activity (INS-1 832/13 [17]): Active | Activity (INS-1 832/13 [18]): Active | Ratio EC50 (INS1(832/13) [19]): 2 | Activity (INS-1 832/13 [20]): Active | Activity (INS-1 832/13 [21]): Active | Activity (INS-1 832/13 [22]): Active | Activity (INS1(832/13) [7]): Active | Activity (INS1(832/13) [23]): Active
